Experimental data published in ChEMBL document CHEMBL1772944, “Homoflavonoid glucosides from Ophioglossum pedunculosum and their anti-HBV activity” (J Nat Prod, 2011).

Test system: Hepatitis B virus
Test: Antiviral activity against HBV transfected in human HepG2(2.2.15) cells assessed as inhibition of HBsAg secretion by ELISA
Assay type: functional, organism-based

In the case of Nc1ccn([C@@H]2CS[C@H](CO)O2)c(=O)n1 [LAMIVUDINE], the IC50 is reported as 58 µM.

Test system: not listed separately
Test: Cytotoxicity against human HepG2(2.2.15) cells after 8 days by MTT assay
Assay type: cell-based

Going from COc1c(-c2ccc(O[C@@H]3O[C@H](CO)[C@@H](O)[C@H](O)[C@H]3O)c(O)c2)oc2cc(O[C@@H]3O[C@H](CO)[C@@H](O)[C@H](O)[C@H]3O)cc(O)c2c1=O to O=c1c(CO)c(-c2ccc(O[C@@H]3O[C@H](CO)[C@@H](O)[C@H](O)[C@H]3O)c(O)c2)oc2cc(O[C@@H]3O[C@H](CO)[C@@H](O)[C@H](O)[C@H]3O)cc(O)c12 [PEDUNCULOSUMOSIDE F], the CC50 at 192 h rises from 7.9 µM to 56.7 µM (7.2-fold).

Going from O=c1c(CO)c(-c2ccc(O[C@@H]3O[C@H](CO)[C@@H](O)[C@H](O)[C@H]3O)c(O)c2)oc2cc(O[C@@H]3O[C@H](CO)[C@@H](O)[C@H](O)[C@H]3O[C@@H]3O[C@H](CO)[C@@H](O)[C@H](O)[C@H]3O)cc(O)c12 [PEDUNCULOSUMOSIDE E] to O=c1c(CO)c(-c2ccc(O[C@@H]3O[C@H](CO)[C@@H](O)[C@H](O)[C@H]3O)c(O)c2)oc2cc(O)cc(O)c12, the CC50 at 192 h falls from greater than 100 µM to 19.7 µM.

Compared with Nc1ccn([C@@H]2CS[C@H](CO)O2)c(=O)n1 [LAMIVUDINE], O=c1c2c(oc3cc(O)cc(O)c13)-c1ccc(O)c(O)c1CO2 [OPHIOGLONIN] is 120-fold lower in CC50 at 192 h: 2400 µM for the first, 20.4 µM for the second.

Compared with COc1c(-c2ccc(O)c(O)c2)oc2cc(O)cc(O)c2c1=O [3-O-METHYLQUERCETIN], O=c1c(O)c(-c2ccc(O)c(O)c2)oc2cc(O)cc(O)c12 [QUERCETIN] is 18-fold higher in CC50 at 192 h: 2.1 µM for the first, 38.1 µM for the second.

For COc1c(-c2ccc(O)c(O)c2)oc2cc(O[C@@H]3O[C@H](CO)[C@@H](O)[C@H](O)[C@H]3O)cc(O)c2c1=O [TRANSILIN], the CC50 at 192 h was 5.4 µM.
